Results published in US20110294766A1, “16 Alpha, 17 Alpha-Acetal Glucocorticosteroidal Derivatives and their Use” (AstraZeneca AB, priority 2008, published 2011).

Target: T1, recombinant human GR (Homo sapiens, UniProt P04150)
T1 construct: purchased Panvera/Invitrogen P2812 (kit P2893)
T1 sequence (P04150 1-777): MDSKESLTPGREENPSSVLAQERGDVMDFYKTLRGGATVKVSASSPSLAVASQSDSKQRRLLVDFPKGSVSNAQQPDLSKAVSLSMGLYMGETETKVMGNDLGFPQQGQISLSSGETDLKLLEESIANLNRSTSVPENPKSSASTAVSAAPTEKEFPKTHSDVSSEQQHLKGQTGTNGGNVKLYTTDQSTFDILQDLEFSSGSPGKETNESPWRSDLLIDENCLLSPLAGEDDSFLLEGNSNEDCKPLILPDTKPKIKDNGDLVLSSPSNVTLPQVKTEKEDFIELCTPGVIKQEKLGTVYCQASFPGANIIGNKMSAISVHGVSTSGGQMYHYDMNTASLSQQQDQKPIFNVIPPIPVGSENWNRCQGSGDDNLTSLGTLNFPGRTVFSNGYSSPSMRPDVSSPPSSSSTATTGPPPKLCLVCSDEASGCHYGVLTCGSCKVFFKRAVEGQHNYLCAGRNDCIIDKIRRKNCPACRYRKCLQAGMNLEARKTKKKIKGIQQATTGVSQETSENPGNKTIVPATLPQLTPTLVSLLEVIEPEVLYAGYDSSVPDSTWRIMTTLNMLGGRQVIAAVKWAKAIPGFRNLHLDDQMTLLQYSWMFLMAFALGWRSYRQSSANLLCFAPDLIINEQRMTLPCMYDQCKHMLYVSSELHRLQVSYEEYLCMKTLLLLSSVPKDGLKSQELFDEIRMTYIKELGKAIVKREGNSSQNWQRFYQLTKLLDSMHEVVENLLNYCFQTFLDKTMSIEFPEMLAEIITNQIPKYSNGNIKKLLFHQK
Assay: Human Glucocorticoid Receptor (GR) Assay (fluorescence polarization, Panvera/Invitrogen kit)
Conditions: GS Red tracer, 2 hours at room temperature, 100% control 10 μM Dexamethasone, read-out: Inhibition of GR binding, IC50
Procedure: Human Glucocorticoid Receptor (GR) Assay The assay is based on a commercial kit from Panvera/Invitrogen (Part number P2893). The assay technology is fluorescence polarization. The kit utilises recombinant human GR (Panvera, Part number P2812), a Fluoromone™ labelled tracer (GS Red, Panvera, Part number P2894) and a Stabilizing Peptide 10× (Panvera, Part number P2815). The GR and Stabilizing Peptide reagents are stored at −70° C. while the GS Red is stored at −20° C. Also included in the kit are 1M DTT (Panvera, Part number P2325, stored at −20° C.) and GR Screening buffer 10× (Panvera, Part number P2814, stored at −70° C. initially but once thawed stored at room temperature). Avoid repeated freeze/thaws for all reagents. The GR Screening buffer 10× comprises 100 mM potassium phosphate, 200 mM sodium molybdate, 1 mM EDTA and 20% DMSO. Test compounds (1 μL) and controls (1 μL) in 100% DMSO were added to black polystyrene 384-well plates (Greiner low volume black flat-bottom, part number 784076). 0% control was 100% DMSO and 100% control was 10 μM Dexamethasone. Background solution (8 μL; assay buffer 10×, Stabilizing Peptide, DTT and ice cold MQ water) was added to the background wells. GS Red solution (7 μL; assay buffer 10×, Stabilizing Peptide, DTT, GS Red and ice cold water) was added to all wells except background wells. GR solution (7 μL; assay buffer 10×, Stabilizing Peptide, DTT, GR and ice cold water) was added to all wells. The plate was sealed and incubated in a dark at room temperature for 2 hours. The plate was read in an Analyst plate reader (LJL Biosystems/Molecular Devices Corporation) or other similar plate reader capable of recording fluorescence polarization (excitation wavelength 530 nm, emission wavelength 590 nm and a dichroic mirror at 561 nm).

IC50 | Compound
1.3 nM | C[C@]12C=CC(=O)C=C1[C@@H](F)C[C@H]1[C@@H]3C[C@H]4OC(c5ccc(Cl)cc5)O[C@@]4(C(=O)SCF)[C@@]3(C)C[C@H](O)[C@@]12F (stereo partly drawn) [Example 29, S-(Fluoromethyl)(4aS,4bR,5S,6aS,6bS,9aR,10aS,10bS,12S)-8-(4-chlorophenyl)-4b,12-difluoro-5-hydroxy-4a,6a-dimethyl-2-oxo-2,4a,4b,5,6,6a,9a,10,10a,10b,11,12-dodecahydro-6bH-naphtho[2′,1′:4,5]indeno[1,2-d][1,3]dioxole-6b-carbothioate]
1.1 nM | C[C@]12C=CC(=O)C=C1[C@@H](F)C[C@H]1[C@@H]3C[C@H]4OC(c5ccccc5)O[C@@]4(C(=O)SCF)[C@@]3(C)C[C@H](O)[C@@]12F (stereo partly drawn) [Example 30, S-(Fluoromethyl)(4aS,4bR,5S,6aS,6bS,9aR,10aS,10bS,12S)-4b,12-difluoro-5-hydroxy-4a,6a-dimethyl-2-oxo-8-phenyl-2,4a,4b,5,6,6a,9a,10,10a,10b,11,12-dodecahydro-6bH-naphtho[2′,1′:4,5]indeno[1,2-d][1,3]dioxole-6b-carbothioate]
0.98 nM | C[C@]12C=CC(=O)C=C1[C@@H](F)C[C@H]1[C@@H]3C[C@H]4O[C@@H](c5ccccc5)O[C@@]4(C(=O)SCC#N)[C@@]3(C)C[C@H](O)[C@@]12F [Example 31, S-(Cyanomethyl)(4aS,4bR,5S,6aS,6bS,9aR,10aS,10bS,12S)-4b,12-difluoro-5-hydroxy-4a,6a-dimethyl-2-oxo-8-phenyl-2,4a,4b,5,6,6a,9a,10,10a,10b,11,12-dodecahydro-6bH-naphtho[2′,1′:4,5]indeno[1,2-d][1,3]dioxole-6b-carbothioate]
1 nM | C[C@]12C=CC(=O)C=C1[C@@H](F)C[C@H]1[C@@H]3C[C@H]4OC(c5cccc6c5OCC6)O[C@@]4(C(=O)SCF)[C@@]3(C)C[C@H](O)[C@@]12F (stereo partly drawn) [Example 32, S-(Fluoromethyl)(4aS,4bR,5S,6aS,6bS,9aR,10aS,10bS,12S)-8-(2,3-dihydro-1-benzofuran-7-yl)-4b,12-difluoro-5-hydroxy-4a,6a-dimethyl-2-oxo-2,4a,4b,5,6,6a,9a,10,10a,10b,11,12-dodecahydro-6bH-naphtho[2′,1′:4,5]indeno[1,2-d][1,3]dioxole-6b-carbothioate]
1 nM | Cc1noc(C)c1C1O[C@@H]2C[C@H]3[C@@H]4C[C@H](F)C5=CC(=O)C=C[C@]5(C)[C@@]4(F)[C@@H](O)C[C@]3(C)[C@]2(C(=O)SCF)O1 (stereo partly drawn) [Example 33, S-(Fluoromethyl)(4aS,4bR,5S,6aS,6bS,9aR,10aS,10bS,12S)-8-(3,5-dimethylisoxazol-4-yl)-4b,12-difluoro-5-hydroxy-4a,6a-dimethyl-2-oxo-2,4a,4b,5,6,6a,9a,10,10a,10b,11,12-dodecahydro-6bH-naphtho[2′,1′:4,5]indeno[1,2-d][1,3]dioxole-6b-carbothioate]
1 nM | C[C@]12C=CC(=O)C=C1CC[C@@H]1[C@@H]2[C@@H](O)C[C@@]2(C)[C@H]1C[C@H]1OC(c3ccco3)O[C@]12C(=O)SCF (stereo partly drawn) [Example 34, S-(Fluoromethyl)(4aR,4bS,5S,6aS,6bS,9aR,10aS,10bS)-8-furan-2-yl-5-hydroxy-4a,6a-dimethyl-2-oxo-2,4a,4b,5,6,6a,9a,10,10a,10b,11,12-dodecahydro-6bH-naphtho[2′,1′:4,5]indeno[1,2-d][1,3]dioxole-6b-carbothioate]
1.1 nM | C[C@]12C=CC(=O)C=C1CC[C@@H]1[C@@H]2[C@@H](O)C[C@@]2(C)[C@H]1C[C@H]1O[C@@H](c3cccs3)O[C@]12C(=O)SCF [Example 35, S-(Fluoromethyl)(4aR,4bS,5S,6aS,6bS,8R,9aR,10aS,10bS)-5-hydroxy-4a,6a-dimethyl-2-oxo-8-thiophen-2-yl-2,4a,4b,5,6,6a,9a,10,10a,10,11,12-dodecahydro-6bH-naphtho[2′,1′:4,5]indeno[1,2-d][1,3]dioxole-6b-carbothioate]
